The source of these data is ChEMBL document CHEMBL4033769, “Simple Tetrahydroisoquinolines Are Potent and Selective Kappa Opioid Receptor Antagonists” (ACS Med Chem Lett, 2017).

The target of assay [1] is Mu-type opioid receptor (Homo sapiens) (UniProt P35372). The assay can be described thus: Agonist activity at human mu-opioid receptor expressed in CHO cell membranes assessed as induction of [35S]GTPgammaS binding at 10 uM after 60 mins by scintillation counting method. The class given is functional. A general note: GTPγS resists hydrolysis and so accumulates on activated G proteins.
Mu-type opioid receptor (Homo sapiens), sequence (P35372 whole entry): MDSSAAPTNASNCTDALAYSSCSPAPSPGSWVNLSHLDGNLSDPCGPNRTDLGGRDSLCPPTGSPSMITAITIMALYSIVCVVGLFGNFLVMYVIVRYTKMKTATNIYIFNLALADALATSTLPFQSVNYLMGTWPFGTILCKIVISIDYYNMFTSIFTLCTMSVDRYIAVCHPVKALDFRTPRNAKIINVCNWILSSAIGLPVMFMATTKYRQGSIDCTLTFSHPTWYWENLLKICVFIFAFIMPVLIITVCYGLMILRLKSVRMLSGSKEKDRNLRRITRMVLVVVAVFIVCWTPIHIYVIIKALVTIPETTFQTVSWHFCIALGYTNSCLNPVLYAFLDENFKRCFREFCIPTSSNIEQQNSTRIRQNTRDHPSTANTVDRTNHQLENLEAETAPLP

Assay [2] addresses Kappa-type opioid receptor (Homo sapiens) (UniProt P41145). Put plainly: Agonist activity at human kappa-opioid receptor expressed in CHO cell membranes assessed as induction of [35S]GTPgammaS binding at 10 uM after 60 mins by scintillation counting method. The class given is functional.
For assay [3], the target named is Delta-type opioid receptor (Homo sapiens) (UniProt P41143). The assay can be described thus: Agonist activity at human delta-opioid receptor expressed in CHO cell membranes assessed as induction of [35S]GTPgammaS binding at 10 uM after 60 mins by scintillation counting method. In kind it is functional.
Delta-type opioid receptor (Homo sapiens), sequence (P41143 whole entry): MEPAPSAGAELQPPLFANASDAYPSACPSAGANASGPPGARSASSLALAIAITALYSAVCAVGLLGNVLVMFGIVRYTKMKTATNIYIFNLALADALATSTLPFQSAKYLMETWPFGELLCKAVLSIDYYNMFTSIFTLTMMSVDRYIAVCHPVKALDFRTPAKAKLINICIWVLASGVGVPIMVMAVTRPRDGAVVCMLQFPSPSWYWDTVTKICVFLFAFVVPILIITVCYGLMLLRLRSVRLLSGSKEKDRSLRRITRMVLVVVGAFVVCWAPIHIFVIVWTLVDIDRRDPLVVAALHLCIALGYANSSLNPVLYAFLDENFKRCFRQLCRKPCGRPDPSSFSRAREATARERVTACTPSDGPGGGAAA
Assay [4] has the same target.
Description: Antagonist activity at human delta-opioid receptor expressed in CHO cell membranes assessed as inhibition of DPDPE agonist-induced [35S]GTPgammaS binding after 60 mins by scintillation counting method

Calls of active or inactive are those of the source. The rule behind the calls is not given here.

Kappa-type opioid receptor (Homo sapiens), sequence (P41145 whole entry): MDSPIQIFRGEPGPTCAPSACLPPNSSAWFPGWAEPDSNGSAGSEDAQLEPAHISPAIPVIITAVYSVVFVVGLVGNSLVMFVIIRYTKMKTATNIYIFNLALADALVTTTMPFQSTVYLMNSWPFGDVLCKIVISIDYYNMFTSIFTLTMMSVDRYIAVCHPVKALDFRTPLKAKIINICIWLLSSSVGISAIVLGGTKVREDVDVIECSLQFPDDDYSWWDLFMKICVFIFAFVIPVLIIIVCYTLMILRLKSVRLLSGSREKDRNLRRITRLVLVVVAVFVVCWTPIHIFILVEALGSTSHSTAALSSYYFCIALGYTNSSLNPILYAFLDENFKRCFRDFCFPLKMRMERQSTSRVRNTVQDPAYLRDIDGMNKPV

As for `CC(C)[C@@H](CN1CCCCC1)NC(=O)[C@H]1Cc2ccc(O)cc2CN1`, the result in assay [1], in assay [2] and in assay [3] was inactive.
On to `CC(C)[C@@H](CC1CCCCC1)NC(=O)[C@H]1Cc2ccc(O)cc2CN1`, for which the result in assay [1], in assay [2] and in assay [3] was inactive. In assay [4], this molecule came in with a Ke of 640 nM.
